Measured values published in patent publication US20260242391A1 (priority 2023, published 2026).

Key:
[1] = tested on: HL-60; test: HL-60 differentiation potency; format: cell-based; conditions: Homo sapiens
[2] = in vitro; conditions: human
[3] = tested on: HL-60; test: HL-60 differentiation potency; format: cell-based; conditions: Homo sapiens; remark: listed apart in the source
[4] = in vitro; conditions: human; remark: listed apart in the source

`C[C@H]1[C@@H](OCc2ccc(OCC(=O)O)cc2)O[C@@H]2OC3(C)CC[C@H]4[C@H](C)CC[C@@H]1[C@@]24OO3` (stereo in doubt) [Compound 274, 2-(4-((((3R,5aS,6R,8aS, 9R,10S,12R, 12aR)-3,6,9-trimethyldeca-hydro-12H-3,12-epoxy[1,2]dioxepino[4,3-i]isochromen-10-yl)oxy)methyl)phenoxy)acetic acid] gave an EC50 [1] of 0.848 µM and an IC50 [2] greater than 20 µM.
Compound `C[C@H]1[C@@H](Oc2ccc(C(=O)N[C@H](C(=O)O)C(C)(C)C)cc2)O[C@@H]2O[C@@]3(C)CC[C@H]4[C@H](C)CC[C@@H]1[C@@]24OO3` [Compound 184, (S)-3,3-dimethyl-2-(4-(((3R,5aS,6R,8aS, 9R,10S,12R, 12aR)-3,6,9-trimethyldeca-hydro-12H-3,12-epoxy[1,2]dioxepino[4,3-i]isochromen-10-yl)oxy)benzamido) butanoic acid] has an EC50 [3] of 0.017 µM and an IC50 [4] of 0.8 µM.
In the case of `C[C@H]1[C@@H](OC[C@H]2CC[C@@H](C(=O)NC(C(=O)O)C3CCC3)CC2)O[C@@H]2O[C@@]3(C)CC[C@H]4[C@H](C)CC[C@@H]1[C@@]24OO3` (stereo partly drawn) [Compound 185, (S)-2-cyclobutyl-2-((1R,4R)-4-((((3R,5aS,6R,8aS, 9R,10S,12R, 12aR)-3,6,9-trimethyldeca-hydro-12H-3,12-epoxy[1,2]dioxepino[4,3-i]isochromen-10-yl)oxy)methyl)cyclohexane-1-carboxamido) acetic acid], the EC50 [1] is reported as 0.0502 µM and the IC50 [2] is reported as greater than 20 µM.
For `C[C@H]1[C@@H](Oc2cc(Cl)cc(CC(=O)O)c2)O[C@@H]2O[C@@]3(C)CC[C@H]4[C@H](C)CC[C@@H]1[C@@]24OO3` [Compound 186, 2-(3-chloro-5-(((3R,5aS,6R,8aS, 9R,10S,12R, 12aR)-3,6,9-trimethyldeca-hydro-12H-3,12-epoxy[1,2]dioxepino[4,3-i]isochromen-10-yl)oxy)phenyl) acetic acid], the EC50 [1] was 0.0624 µM and the IC50 [2] was 4 µM.
With `C[C@H]1[C@@H](Oc2ccc(C(=O)N[C@H]3CCC[C@H]3C(=O)O)cc2)O[C@@H]2O[C@@]3(C)CC[C@H]4[C@H](C)CC[C@@H]1[C@@]24OO3` [Compound 187, (1R,2S)-2-(4-(((3R,5aS,6R,8aS, 9R,10S,12R, 12aR)-3,6,9-trimethyldeca-hydro-12H-3,12-epoxy[1,2]dioxepino[4,3-i]isochromen-10-yl)oxy)benzamido) cyclopentane-1-carboxylic acid] the EC50 [1] was 0.0333 µM and the IC50 [2] was 2.4 µM.
With `C[C@H]1[C@@H](OCC(=O)N[C@H](C(=O)O)C(C)(C)C)O[C@@H]2O[C@@]3(C)CC[C@H]4[C@H](C)CC[C@@H]1[C@@]24OO3` [Compound 188, (S)-3,3-dimethyl-2-(2-(((3R,5aS,6R, 8aS,9R,10S,12R, 12aR)-3,6,9-trimethyldeca-hydro-12H-3,12-epoxy[1,2]dioxepino[4,3-i]isochromen-10-yl)oxy)acetamido) butanoic acid] the EC50 [1] was 5.06 µM and the IC50 [2] was greater than 20 µM.
For `C[C@H]1[C@@H](O[C@H]2CC[C@@H](C(=O)N[C@H](C(=O)O)c3ccccc3)CC2)O[C@@H]2O[C@@]3(C)CC[C@H]4[C@H](C)CC[C@@H]1[C@@]24OO3` [Compound 189, (S)-2-phenyl-2-((1R,4R)-4-(((3R,5aS,6R,8aS, 9R,10S,12R, 12aR)-3,6,9-trimethyldeca-hydro-12H-3,12-epoxy[1,2]dioxepino[4,3-i]isochromen-10-yl)oxy)cyclo-hexane-1-carboxamido) acetic acid], the EC50 [1] was 1.89 µM and the IC50 [2] was 15.2 µM.
Work on `C[C@H]1[C@@H](Oc2ccc(C(=O)N3C[C@H]4[C@@H]([C@H]3C(=O)O)C4(C)C)cc2)O[C@@H]2O[C@@]3(C)CC[C@H]4[C@H](C)CC[C@@H]1[C@@]24OO3` [Compound 190, (1R,2S,5S)-6,6-dimethyl-3-(4-(((3R,5aS,6R,8aS, 9R,10S,12R, 12aR)-3,6,9-trimethyldeca-hydro-12H-3,12-epoxy[1,2]dioxepino[4,3-i]isochromen-10-yl)oxy)benzoyl)-3-azabicyclo[3.1.0] hexane-2-carboxylic acid] yielded an EC50 [1] of 0.0803 µM and an IC50 [2] of 0.33 µM.
`C[C@H]1[C@@H](OCC(=O)N2C[C@@H]3CCC[C@@H]3[C@H]2C(=O)O)O[C@@H]2O[C@@]3(C)CC[C@H]4[C@H](C)CC[C@@H]1[C@@]24OO3` [Compound 191, (1S,3aR,6aS)-2-(2-(((3R,5aS,6R, 8aS,9R,10S,12R, 12aR)-3,6,9-trimethyldeca-hydro-12H-3,12-epoxy[1,2]dioxepino[4,3-i]isochromen-10-yl)oxy)acetyl) octahydrocyclo-penta[c]pyrrole-1-carboxlic acid] showed an EC50 [1] of 9.73 µM and an IC50 [2] greater than 20 µM.
Compound `C[C@H]1[C@@H](Oc2ccc(C3CC3C(=O)O)cc2)O[C@@H]2O[C@@]3(C)CC[C@H]4[C@H](C)CC[C@@H]1[C@@]24OO3` (stereo partly drawn) [Compound 192, 2-(4-(((3R,5aS,6R,8aS, 9R,10S,12R, 12aR)-3,6,9-trimethyldeca-hydro-12H-3,12-epoxy[1,2]dioxepino[4,3-i]isochromen-10-yl)oxy)phenyl) cyclopropane-1-carboxylic acid] has an EC50 [1] of 0.0672 µM and an IC50 [2] of 3.5 µM.
`CO[C@]1(CO[C@H]2O[C@@H]3O[C@@]4(C)CC[C@H]5[C@H](C)CC[C@@H]([C@H]2C)[C@@]35OO4)CC[C@H](C(=O)O)CC1` [Compound 193, (1R,4s)-4-methoxy-4-((((3R,5aS,6R,8aS, 9R,10S,12R, 12aR)-3,6,9-trimethyldeca-hydro-12H-3,12-epoxy[1,2]dioxepino[4,3-i]isochromen-10-yl)oxy)methyl) cyclohexane-1-carboxylic acid] gave an EC50 [1] of 7.03 µM and an IC50 [2] greater than 20 µM.
With `C[C@H]1[C@@H](Oc2ccc([C@H](N)C(=O)O)cc2)O[C@@H]2O[C@@]3(C)CC[C@H]4[C@H](C)CC[C@@H]1[C@@]24OO3` [Compound 194, (S)-2-amino-2-(4-(((3R,5aS,6R,8aS, 9R,10S,12R, 12aR)-3,6,9-trimethyldeca-hydro-12H-3,12-epoxy[1,2]dioxepino[4,3-i]isochromen-10-yl)oxy)phenyl) acetic acid] the EC50 [1] was 17.7 µM and the IC50 [2] was greater than 20 µM.
In the case of `C[C@H]1[C@H](OCc2ccc(C(=O)O)cc2C(F)(F)F)O[C@@H]2O[C@@]3(C)CC[C@H]4[C@H](C)CC[C@@H]1[C@@]24OO3` [Compound 195, 3-(trifluoromethyl)-4-((((3R,5aS,6R,8aS, 9R,10R,12R, 12aR)-3,6,9-trimethyldeca-hydro-12H-3,12-epoxy[1,2]dioxepino[4,3-i]isochromen-10-yl)oxy)methyl) benzoic acid], the EC50 [1] is reported as 0.156 µM and the IC50 [2] is reported as 10 µM.
For `C[C@@H]1CC[C@H]2[C@@H](C)[C@](OCc3ccc(C(=O)O)cc3Cl)(C(F)(F)F)O[C@@H]3O[C@@]4(C)CC[C@@H]1[C@]32OO4` [Compound 196], the EC50 [1] was 0.0103 µM and the IC50 [2] was 0.03 µM.
`C[C@@H]1CC[C@H]2[C@@H](C)C(OCc3ccc(C(=O)O)cc3C(F)(F)F)O[C@@H]3O[C@@]4(C)CC[C@@H]1[C@]32OO4` (stereo partly drawn) [Compound 197, 3-(trifluoromethyl)-4-((((3R,5aS,6R,8aS, 9R,12R, 12aR)-3,6,9-trimethyldeca-hydro-12H-3,12-epoxy[1,2]dioxepino[4,3-i]isochromen-10-yl)oxy)methyl) benzoic acid] showed an EC50 [1] of 0.066 µM and an IC50 [2] of 5.38 µM.
Compound `C[C@H]1[C@@H](Oc2ccc(C(=O)N[C@H]3CCC(=O)NC3=O)cc2)O[C@@H]2O[C@@]3(C)CC[C@H]4[C@H](C)CC[C@@H]1[C@@]24OO3` [Compound 198, N-((S)-2,6-dioxopiperidin-3-yl)-4-(((3R,5aS,6R,8aS, 9R,10S,12R, 12aR)-3,6,9-trimethyldeca-hydro-12H-3,12-epoxy[1,2]dioxepino[4,3-i]isochromen-10-yl)oxy)benzamide] has an EC50 [1] of 0.0479 µM and an IC50 [2] of 4 µM.
`CO[C@]1(CO[C@H]2O[C@@H]3O[C@@]4(C)CC[C@H]5[C@H](C)CC[C@@H]([C@H]2C)[C@@]35OO4)CC[C@@H](C(=O)O)CC1` [Compound 199, (1S,4r)-4-methoxy-4-((((3R,5aS,6R,8aS, 9R,10S,12R, 12aR)-3,6,9-trimethyldeca-hydro-12H-3,12-epoxy[1,2]dioxepino[4,3-i]isochromen-10-yl)oxy)methyl) cyclohexane-1-carboxylic acid] gave an EC50 [1] of 6.48 µM and an IC50 [2] greater than 20 µM.
For `C[C@H]1[C@@H](OC[C@]2(F)CC[C@@H](C(=O)O)CC2)O[C@@H]2O[C@@]3(C)CC[C@H]4[C@H](C)CC[C@@H]1[C@@]24OO3` [Compound 200, (1R,4s)-4-fluoro-4-((((3R,5aS,6R,8aS, 9R,10S,12R, 12aR)-3,6,9-trimethyldeca-hydro-12H-3,12-epoxy[1,2]dioxepino[4,3-i]isochromen-10-yl)oxy)methyl) cyclohexane-1-carboxylic acid], the EC50 [1] was 4.47 µM and the IC50 [2] was 15.3 µM.
In the case of `C[C@H]1[C@@H](O[C@H]2C[C@@H](C(=O)N[C@H]3CC[C@@H](C(=O)O)C3)C2)O[C@@H]2O[C@@]3(C)CC[C@H]4[C@H](C)CC[C@@H]1[C@@]24OO3` [Compound 201, (1R,3S)-3-((1R,3R)-3-(((3R,5aS,6R,8aS, 9R,10S,12R, 12aR)-3,6,9-trimethyldeca-hydro-12H-3,12-epoxy[1,2]dioxepino[4,3-i]isochromen-10-yl)oxy)cyclo-butane-1-carboxamido) cyclopentane-1-carboxylic acid], the EC50 [1] is reported as 6.73 µM and the IC50 ([2]; HL-60 cells) is reported as greater than 20 µM.
`C[C@H]1[C@@H](O[C@H]2CC[C@@H](C(=O)N[C@H]3CC[C@@H](C(=O)O)C3)CC2)O[C@@H]2O[C@@]3(C)CC[C@H]4[C@H](C)CC[C@@H]1[C@@]24OO3` [Compound 202, (1R,3S)-3-((1R,4R)-4-(((3R,5aS,6R,8aS, 9R,10S,12R, 12aR)-3,6,9-trimethyldeca-hydro-12H-3,12-epoxy[1,2]dioxepino[4,3-i]isochromen-10-yl)oxy)cyclo-hexane-1-carboxamido) cyclopentane-carboxylic acid] gave an EC50 [1] of 4.01 µM.
For `C[C@H]1[C@@H](Oc2ccc(C(=O)N[C@H]3C[C@@H](C(=O)O)C3)cc2)O[C@@H]2O[C@@]3(C)CC[C@H]4[C@H](C)CC[C@@H]1[C@@]24OO3` [Compound 233, (1R,3s)-3-(4-(((3R,5aS,6R,8aS, 9R,10S,12R, 12aR)-3,6,9-trimethyldeca-hydro-12H-3,12-epoxy[1,2]dioxepino[4,3-i]isochromen-10-yl)oxy)benzamido) cyclobutane-1-carboxylic acid], the EC50 [1] was 0.0936 µM.
